{"source": "paper PMC9632963", "about": "“Preclinical characterization and phase I clinical trial of CT053PTSA targets MET, AXL, and VEGFR2 in patients with advanced solid tumors” (Frontiers in Immunology, 2022)", "origin": "cited, not measured here", "key": {"MET [1]": {"test_system": "MET", "parameters": "method as in PMID 18089725", "details": "NCI-H69 cells; read-out: IC50, phosphorylation of MET; cited from earlier work"}, "MET [2]": {"test_system": "MET", "parameters": "method as in PMID 18089725", "details": "HOP92 cells; read-out: IC50, phosphorylation of MET; cited from earlier work"}, "patients": {"test_system": "patients", "parameters": "method as in PMID 30833489", "details": "20/50 patients; cited from earlier work"}, "[3]": {"test_system": "Japanese patients with NSCLC", "parameters": "method as in PMID 30718102", "details": "cited from earlier work"}, "[4]": {"parameters": "method as in PMID 27734291", "details": "cited from earlier work"}}, "note": "Like-named read-outs stand apart in the source and are kept apart here.", "data": [{"molecule": "C[C@@H](Oc1cc(-c2cnn(C3CCNCC3)c2)cnc1N)c1c(Cl)ccc(F)c1Cl", "note": "[crizotinib]", "values": [{"measurement": "IC50", "setting": "MET [1]", "value": "[…]"}, {"measurement": "IC50", "setting": "MET [2]", "value": 16, "unit": "nM"}]}, {"molecule": "Cc1ccc(C(=O)Nc2ccc(Oc3cc4cnn(C)c4cc3-c3cn[nH]c3)c(F)c2)c(=O)n1-c1ccc(F)cc1", "note": "[merestinib]", "values": [{"measurement": "patients with ≥ grade 3 TRAEs", "setting": "patients", "value": 40, "unit": "%"}]}, {"molecule": "COc1cc2nccc(Oc3ccc(NC(=O)C4(C(=O)Nc5ccc(F)cc5)CC4)cc3)c2cc1OC", "note": "[cabozantinib]", "values": [{"measurement": "patients with ≥ grade 3 AEs", "setting": "[3]; 16/23 patients", "value": 70, "unit": "%"}, {"measurement": "AE: diarrhea", "setting": "[3]", "value": 78, "unit": "%"}, {"measurement": "AE: hypertension", "setting": "[3]", "value": 87, "unit": "%"}, {"measurement": "AE: increased alanine aminotransferase", "setting": "[3]", "value": 95, "unit": "%"}, {"measurement": "AE: increased aspartate aminotransferase", "setting": "[3]", "value": 95, "unit": "%"}, {"measurement": "AE: palmar-plantar erythrodysesthesia", "setting": "[3]", "value": 100, "unit": "%"}, {"measurement": "half-life", "setting": "[4]", "value": "108 to 126", "unit": "h"}, {"measurement": "median Tmax", "setting": "[4]", "value": 4, "unit": "h"}]}]}
